Reference: patent US11603355B2, “Charged ion channel blockers and methods for use” (Nocion Therapeutics, Inc., priority 2019, dated 2023)
Where a name gives a salt, the structure may show the parent alone.

Experiments:
NaV1.7 [1] = target: T1, NaV1.7 (Homo sapiens, UniProt Q15858); experiment: Manual patch clamp, external block of NaV1.7 current; assay type: cell-based; details: % inhibition at 10 μM test concentration, compound in external solution, HEK293 cells; for inhibition at 10 µM: read-out: Nav1.7 Extracellular Inhibition
T1 construct: expressed in transfected cells; host or cells: HEK293 (tetracycline-inducible)
Protocol: Representative compounds of the invention were synthesized according to the described methods and tested for the ability to inhibit voltage-gated sodium channels.
NaV1.7 was expressed in HEK293 cells upon induction with tetracycline. Cells were cultured in DMEM containing 10% dialyzed Fetal Bovine Serum (VWR, Radnor, Pa.), 1% Glutamax (VWR, Radnor, Pa.), 1% Penicillin-Streptomycin (VWR, Radnor, Pa.), 100 mg/L Hygromycin (Thermo Fisher Scientific, Waltham, Mass. and 5 mg/L Blasticidin (Alfa Aesar, Haverhill, Mass.). Cells were grown and maintained at 37° C. in a humidified environment containing 10% CO2 in air. Cells were detached from the culture flask for passage and harvested using 0.05% Trypsin-EDTA (Thermo Fisher Scientific, Waltham, Mass.). To induce NaV1.7, cells were induced with tetracycline (0.1-1 μg/mL, IBI Scientific, Peosta, Iowa) the day before recording and plated onto 24-well plates. Cells were washed with DPBS (VWR, Radnor, Pa.), trypsinized and then triturated five times in 10 mL of growth media to break apart cell aggregates. For one 24-well plate, 2 mL of cell suspension was mixed with 23 mL of fresh growth media and 0.1-1 μg/mL tetracycline added. 1 ml of mixed media with cells was then added to each well of a 24-well plate, with a 12 mm coverslip already placed in the bottom of the well. Cells were then incubated in 37° C. and 10% CO2 overnight.
The intracellular solution contained the following (in mM) CsCl 135, NaCl 10, EGTA 10, HEPES 10, MgCl2 2, adjusted to pH 7.2 with CsOH. The external solution was a normal Ringer solution containing (in mM) NaCl 155, HEPES 10, glucose 10, KCl 3.5, CaCl2 1.5, MgCl2 1 adjusted to pH 7.4 with NaOH. CsCl is from Alfa Aesar, Haverhill, Mass. All other chemicals are from Sigma-Aldrich, St. Louis, Mo. In order to test the degree of internal block by test compounds the compounds were dissolved in internal solution at the indicated test concentration. […] In order to test the degree of external block by test compounds the compounds were dissolved in external solution at the indicated test concentration.
18-24 hours after cells were induced with tetracycline, coverslips were placed into a chamber filled with Normal Ringer solution at room temperature and the chamber placed on a microscope. Pipettes were pulled from borosilicate glass on a P97 puller (Sutter Instrument, Novato, Calif.) and polished with a MF-830 Microforge (Narishige International USA, Inc., Amityville, N.Y.) to have a resistance of 1.5-2.5 MΩ when filled with CsCl internal solution at room temperature. Healthy cells (those that are round and translucent with no visible blemishes) were chosen for seal formation. A seal was formed between the pipette and the cell, and a brief pulse of suction was used to “break in” and establish the whole-cell configuration. The membrane potential was held at −100 mV before the voltage protocol began. Only cells with series resistance between 1.5-5 MΩ were retained for analysis. The voltage protocol was as follows: Cells were held at −100 mV for 12 ms followed by a hyperpolarizing step to −105 mV for 12 ms to monitor the leak. Cells were then stepped back to −100 mV for 40 ms. Cells were then depolarized to −20 mV for 10 ms and then returned to −100 mV for 26 ms.
Once the recording was started, the voltage protocol was run at 30 second intervals for 5 minutes to get a stable baseline. This is followed by 5 Hz stimulation of the same voltage protocol run until the end of experiment. […] The test compound is added for 5 minutes before washing out with normal Ringer's solution. Currents were recorded using PatchMaster software with Heka EPC10 (HEKA Electronics, Lambrecht, Germany). Only cells with inward current amplitudes at −20 mV between 400 pA and 4 nA were accepted. In addition, cells having leak currents greater than 10% of their current amplitudes were discarded. […]

NaV1.7 [2] = target: T1, NaV1.7; experiment: Manual patch clamp, internal block of NaV1.7 current; assay type: cell-based; details: compound in internal solution, HEK293 cells; for inhibition at 3 µM / inhibition at 10 µM: read-out: Nav1.7 Intracellular Inhibition; for inhibition at 10 µM: % inhibition at 10 μM test concentration
How it was run: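 Whole-cell recordings at room temperature in tetracycline-induced HEK293 cells, compound in CsCl internal solution (pH 7.2), held at −100 mV with 10 ms steps to −20 mV. Four 30 s 5 Hz trains after 5 min baseline; fraction of peak inward current remaining computed as Itest/Ibaseline.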

[3] = % inhibition at 3 μM test concentration

T1 sequence (Q15858 whole entry): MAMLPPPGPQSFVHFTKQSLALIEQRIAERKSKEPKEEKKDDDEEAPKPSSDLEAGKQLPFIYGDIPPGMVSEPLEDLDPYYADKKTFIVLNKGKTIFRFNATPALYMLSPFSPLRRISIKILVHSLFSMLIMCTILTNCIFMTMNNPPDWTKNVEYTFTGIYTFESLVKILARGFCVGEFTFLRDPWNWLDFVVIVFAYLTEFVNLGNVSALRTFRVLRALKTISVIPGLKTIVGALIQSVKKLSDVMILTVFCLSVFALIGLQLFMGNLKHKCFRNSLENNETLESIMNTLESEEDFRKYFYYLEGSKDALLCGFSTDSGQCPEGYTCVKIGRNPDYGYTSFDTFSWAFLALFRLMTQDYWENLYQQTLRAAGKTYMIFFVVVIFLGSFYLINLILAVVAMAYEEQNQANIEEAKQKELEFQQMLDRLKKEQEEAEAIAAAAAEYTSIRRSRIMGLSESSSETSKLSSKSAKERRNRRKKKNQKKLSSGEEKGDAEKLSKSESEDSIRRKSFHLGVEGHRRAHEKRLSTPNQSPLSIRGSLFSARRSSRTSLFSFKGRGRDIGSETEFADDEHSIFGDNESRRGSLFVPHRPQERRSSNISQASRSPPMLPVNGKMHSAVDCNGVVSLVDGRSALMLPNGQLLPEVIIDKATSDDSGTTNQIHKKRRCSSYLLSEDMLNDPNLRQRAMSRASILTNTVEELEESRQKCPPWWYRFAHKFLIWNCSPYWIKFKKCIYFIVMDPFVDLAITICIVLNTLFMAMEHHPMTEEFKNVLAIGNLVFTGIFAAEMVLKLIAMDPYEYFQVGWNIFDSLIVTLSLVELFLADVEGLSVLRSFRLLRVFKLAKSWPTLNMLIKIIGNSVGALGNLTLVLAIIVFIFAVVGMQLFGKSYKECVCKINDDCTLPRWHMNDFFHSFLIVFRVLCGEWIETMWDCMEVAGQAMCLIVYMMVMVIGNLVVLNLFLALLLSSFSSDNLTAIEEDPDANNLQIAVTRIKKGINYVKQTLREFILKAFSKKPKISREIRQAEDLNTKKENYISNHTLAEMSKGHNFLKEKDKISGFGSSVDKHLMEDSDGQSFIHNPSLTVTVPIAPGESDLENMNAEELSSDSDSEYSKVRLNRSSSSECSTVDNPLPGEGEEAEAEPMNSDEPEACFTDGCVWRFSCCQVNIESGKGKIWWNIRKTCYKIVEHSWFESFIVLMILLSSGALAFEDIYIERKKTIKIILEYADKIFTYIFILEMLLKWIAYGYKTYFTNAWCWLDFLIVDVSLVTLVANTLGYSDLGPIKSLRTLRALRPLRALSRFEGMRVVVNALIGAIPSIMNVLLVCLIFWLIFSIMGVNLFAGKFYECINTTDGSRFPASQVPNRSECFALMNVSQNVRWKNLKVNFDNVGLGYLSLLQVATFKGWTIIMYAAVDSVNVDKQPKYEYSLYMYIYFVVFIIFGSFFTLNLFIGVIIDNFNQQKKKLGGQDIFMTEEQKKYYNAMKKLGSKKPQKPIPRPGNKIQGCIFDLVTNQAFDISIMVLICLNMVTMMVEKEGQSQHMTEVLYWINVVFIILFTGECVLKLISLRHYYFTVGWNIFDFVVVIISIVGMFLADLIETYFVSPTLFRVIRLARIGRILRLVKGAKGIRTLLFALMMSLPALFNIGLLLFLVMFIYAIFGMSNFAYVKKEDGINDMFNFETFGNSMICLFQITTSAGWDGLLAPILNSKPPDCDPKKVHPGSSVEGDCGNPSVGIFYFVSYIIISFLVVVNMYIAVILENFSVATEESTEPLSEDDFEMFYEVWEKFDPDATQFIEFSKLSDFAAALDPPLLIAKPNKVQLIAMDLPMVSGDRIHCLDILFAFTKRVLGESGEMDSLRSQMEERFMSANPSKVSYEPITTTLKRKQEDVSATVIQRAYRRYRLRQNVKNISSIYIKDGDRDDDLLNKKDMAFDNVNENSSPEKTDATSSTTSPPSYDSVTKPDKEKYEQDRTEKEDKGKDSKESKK

inhibition at 3 µM (NaV1.7 [2]; [3]) [%] | Compound | also measured
 | 1-benzyl-1-(2-((2-(dimethylcarbamoyl)-6-methylphenyl) amino)-2-oxoethyl) azepan-1-ium bromide [Compound 81A] | Nav1.7 Extracellular Inhibition (NaV1.7 [1]): + (“+” (<40%)); Nav1.7 Intracellular Inhibition (NaV1.7 [2]; [3]): +++ (“+++” 90-70%)
> 90 | Cc1cccc(C)c1NC(=O)C[N+]1(Cc2ccccc2)CCCC(C(=O)OC(C)C)C1 (mixture of isomers) [Compound 46A, 1-benzyl-1-(2-((2,6-dimethylphenyl)amino)-2-oxoethyl)-3-(isopropoxycarbonyl) piperidin-1-ium trifluoroacetate salt] | inhibition at 10 µM (NaV1.7 [1]): 40 to 70%
70 to 90 | Cc1cccc(C)c1NC(=O)C[N+]1(Cc2ccccc2)CCCC(C(N)=O)C1.[Br-] (mixture of isomers) [Compound 53A, 1-benzyl-3-carbamoyl-1-(2-((2,6-dimethylphenyl)amino)-2-oxoethyl) piperidin-1-ium bromide] | inhibition at 10 µM (NaV1.7 [1]): < 40%
> 90 | Cc1cccc(C)c1NC(=O)C[N+]1(Cc2ccccc2)CCCC(F)(F)C1.[Br-] (centres unmarked) [Compound 32A, 1-benzyl-1-(2-((2,6-dimethylphenyl)amino)-2-oxoethyl)-3,3-difluoropiperidin-1-ium bromide] | 
> 90 | [2H]c1c([2H])c([2H])c(C[N+]2(CC(=O)Nc3c(C)cccc3C)CCCCCC2)c([2H])c1[2H].[Cl-] [Compound 33A, 1-(2-((2,6-dimethylphenyl)amino)-2-oxoethyl)-1-((phenyl-d5)methyl) azepan-1-ium chloride] | inhibition at 10 µM (NaV1.7 [1]): 40 to 70%
> 90 | COC(=O)c1cccc(C[N+]2(CC(=O)Nc3c(C)cccc3C)CCCCC2)c1.[Br-] [Compound 35A, 1-(2-((2,6-dimethylphenyl)amino)-2-oxoethyl)-1-(3-(methoxycarbonyl)benzyl) piperidin-1-ium bromide] | inhibition at 10 µM (NaV1.7 [1]): < 40%
70 to 90 | COC(=O)c1ccc(C[N+]2(CC(=O)Nc3c(C)cccc3C)CCCCC2)cc1.[Br-] [Compound 36A, 1-(2-((2,6-dimethylphenyl)amino)-2-oxoethyl)-1-(4-(methoxycarbonyl)benzyl) piperidin-1-ium bromide] | 
70 to 90 | COC(=O)c1ccccc1C[N+]1(CC(=O)Nc2c(C)cccc2C)CCCCC1.[Br-] [Compound 37A, 1-(2-((2,6-dimethylphenyl)amino)-2-oxoethyl)-1-(2-(methoxycarbonyl)benzyl) piperidin-1-ium bromide] | inhibition at 10 µM (NaV1.7 [2]): 70 to 95%
70 to 90 | Cc1cccc(C)c1N(C)C(=O)C[N+]1(Cc2ccccc2)CCCCCC1 [Compound 38A, 1-benzyl-1-(2-((2,6-dimethylphenyl) (methyl)amino)-2-oxoethyl) azepan-1-ium formate] | inhibition at 10 µM (NaV1.7 [1]): < 40%
 | CCCCNc1ccc(NC(=O)C[N+]2(Cc3ccccc3)CCCCCC2)cc1.O=C[O-] [Compound 41A, 1-benzyl-1-(2-((4-(butylamino)phenyl)amino)-2-oxoethyl) azepan-1-ium formate] | inhibition at 10 µM (NaV1.7 [2]): 70 to 95%
> 90 | COC(=O)C1CC[N+](CC(=O)Nc2c(C)cccc2C)(Cc2ccccc2)CC1.[Br-] (centres unmarked) [Compound 44A, 1-benzyl-1-(2-((2,6-dimethylphenyl)amino)-2-oxoethyl)-4-(methoxycarbonyl) piperidin-1-ium bromide] | inhibition at 10 µM (NaV1.7 [1]): < 40%
70 to 90 | CCOC(=O)C1CCC[N+](CC(=O)Nc2c(C)cccc2C)(Cc2ccccc2)C1.[Br-] (centres unmarked) [Compound 45A, 1-benzyl-1-(2-((2,6-dimethylphenyl)amino)-2-oxoethyl)-3-(ethoxycarbonyl) piperidin-1-ium bromide] | 
> 90 | CCC(=O)OC1CCC[N+](CC(=O)Nc2c(C)cccc2C)(Cc2ccccc2)C1.[Br-] (centres unmarked) [Compound 52A, 1-benzyl-1-(2-((2,6-dimethylphenyl)amino)-2-oxoethyl)-3-(propionyloxy) piperidin-1-ium bromide] | 
> 90 | CCNC(=O)C1CCC[N+](CC(=O)Nc2c(C)cccc2C)(Cc2ccccc2)C1.[Br-] (centres unmarked) [Compound 54A, 1-benzyl-1-(2-((2,6-dimethylphenyl)amino)-2-oxoethyl)-3-(ethylcarbamoyl) piperidin-1-ium bromide] | 
70 to 90 | CNC(=O)C1CCC[N+](CC(=O)Nc2c(C)cccc2C)(Cc2ccccc2)C1 (centres unmarked) [Compound 55A] | 
40 to 70 | Cc1cccc(C)c1NC(=O)C[N+]1(Cc2ccccc2)CCCC(C(=O)NC(C)C)C1 (centres unmarked) [Compound 56A] | 
70 to 90 | CCCNC(=O)C1CCC[N+](CC(=O)Nc2c(C)cccc2C)(Cc2ccccc2)C1 (centres unmarked) [Compound 57A] | 
> 90 | Cc1cccc(C)c1NC(=O)C[N+]1(Cc2ccccc2)CCCC(C(=O)N2CCCC2)C1 (centres unmarked) [Compound 62A] | 
> 90 | Cc1cccc(C)c1NC(=O)C[N+]1(Cc2ccccc2)CCCC(C(=O)N2CCCCC2)C1 (centres unmarked) [Compound 63A] | 
> 90 | Cc1cccc(C)c1NC(=O)C[N+]1(Cc2ccccc2)CCCC(C(=O)N(C)C)C1.[Br-] (centres unmarked) [Compound 65A] | 
70 to 90 | CCN(CC)C(=O)C1CCC[N+](CC(=O)Nc2c(C)cccc2C)(Cc2ccccc2)C1 (centres unmarked) [Compound 66A] | 
> 90 | CCCOC(=O)N1CCC[N+](CC(=O)Nc2c(C)cccc2C)(Cc2ccccc2)CC1.[Br-] (centres unmarked) [Compound 68A, 1-benzyl-1-(2-((2,6-dimethylphenyl)amino)-2-oxoethyl)-4-(propoxycarbonyl)-1,4-diazepan-1-ium bromide] | 
70 to 90 | COc1cccc(C)c1NC(=O)C[N+]1(Cc2ccccc2)CCCCCC1 [Compound 71A] | 
> 90 | Cc1cccc(C#N)c1NC(=O)C[N+]1(Cc2ccccc2)CCCCCC1.[Br-] [Compound 72A] | 
70 to 90 | Cc1cccc(C(C)C)c1NC(=O)C[N+]1(Cc2ccccc2)CCCCCC1.[Br-] [Compound 74A] | 
> 90 | CCCc1cccc(C)c1NC(=O)C[N+]1(Cc2ccccc2)CCCCCC1.[Br-] [Compound 75A] | 
70 to 90 | CCOc1cccc(C)c1NC(=O)C[N+]1(Cc2ccccc2)CCCCCC1.[Br-] [Compound 77A] | 
70 to 90 | Cc1cccc(C)c1C(=O)OCC[N+]1(Cc2ccccc2)CCCCCC1.[Br-] [Compound 82A, 1-benzyl-1-(2-((2,6-dimethylbenzoyl)oxy)ethyl) azepan-1-ium bromide] | 
70 to 90 | Cc1cccc(C)c1N1CCC([N+]2(Cc3ccccc3)CCCCC2)C1=O.[Br-] (centres unmarked) [Compound 89A, 1-benzyl-1-(1-(2,6-dimethylphenyl)-2-oxopyrrolidin-3-yl)piperidin-1-ium bromide] | 
40 to 70 | Cc1cccc(C)c1N1CCCC([N+]2(Cc3ccccc3)CCCC2)C1=O.[Br-] (centres unmarked) [Compound 91A, 1-benzyl-1-(1-(2,6-dimethylphenyl)-2-oxopiperidin-3-yl) pyrrolidin-1-ium bromide] | 
